Assays:
MCP-1 = experiment: Gene expression in LPS activated RAW 264.7 macrophages, MCP-1; type: cell-based, mouse; conditions: RAW 264.7, 10 μM, LPS 1 μg/ml, RNA 3 hrs after activation, vs vehicle treated activated cells
Protocol: (§1) RAW 264.7 macrophages, a mouse cell line (ATCC # TIB 71), were grown in Dulbecco's modified Eagle's medium (DMEM) with 4 mM L-glutamine adjusted to contain 1.5 g/L sodium bicarbonate, 4.5 g/L glucose, and 10% heat inactivated fetal bovine serum. Cells were grown in tissue culture flasks and seeded at appropriate density into 6 wells tissue culture plates. Four million Raw cells in half a milliliter were stimulated with 1 μg/ml LPS E. coli 055:B5 (DIFCO Laboratories). The mouse macrophages were pre-treated for one hour with controls or 10 μM of test compounds, and later on activated with LPS. RNA samples were extracted from the cells 3 hrs after activation and gene expression levels were analyzed by real-time RT-PCR. In parallel, supernatants were collected and secretion of inflammatory mediators was analyzed using ELISA techniques according to the instructions of the kit manufacturer.
(§2) Total RNA is prepared using SV total RNA isolation system (Promega). The cells were homogenized in lysis buffer. The lysates were transferred to an RNA isolation column, treated with DNAse, washed and eluted according to kit instructions. RNA concentrations were determined using GeneQuant II (Pharmacia-Amersham). Complementary DNA (cDNA) was synthesized from total RNA using […] II reverse transcriptase (Life Technologies). 2 μg of total RNA were combined with an oligo (dT)15 primer, 0.5 mM dNTP mix, 8 units of reverse transcriptase and other reaction components up to a final volume of 20 μl, according to the kit instructions. The reaction mixture was incubated at 42° C. for 45 min and inactivated at 70° C. for 15 minutes. Quantitative real-time RT-PCR included 1 μl of the cDNA, 300 nM of the appropriate forward and reverse primers (according to the gene monitored) and 7.5 μl of the reaction mix containing buffer, nucleotides, Taq polymerase and SYBER green (SYBER Green master mix, Applied Biosystems), in a total reaction volume of 15 μl. Gene amplification was obtained using the GeneAmp 5700 sequence detection system (Applied Biosystems). Amplification included one stage of 10 minutes at 95° C. followed by 40 cycles of a 2-steps loop: 20 seconds at 95° C., and 1 minute at 60° C. During each annealing step, the amount of the amplified product was measured by the fluorescence of the double strand DNA binding dye, SYBER Green. The cycle of threshold (CT), representing the PCR cycle at which an increase in fluorescence above a baseline signal can be first detected, was determined for each product. A delay of one PCR cycle in the CT is translated into a two-fold decrease in starting template molecules and vice versa. The changes in the CT of the specific gene product were normalized to the changes in the CT of housekeeping cyclophilin or GAPDH as reference genes. Results were expressed as fold increase of gene expression in treated or untreated activated cells above the resting cells, after normalization to cyclophilin or GAPDH. Cells were also tested for viability to confirm that any effect on gene expression was indeed due to modulation of transcription of a specific target and not to cytoxicity.
(§3) Results were further expressed as percent inhibition of gene expression in compound treated activated cells over vehicle “treated” activated cells. Since the modulation of IL-10 and TNF-α gene expression by the compounds of the invention is relatively minor, it is not reported. […] Inhibition above 50% was considered significant.

COX-2 = experiment: Gene expression in LPS activated RAW 264.7 macrophages, COX-2; type: cell-based, mouse; conditions: RAW 264.7, 10 μM, LPS 1 μg/ml, RNA 3 hrs after activation, vs vehicle treated activated cells
Protocol: as §1, §2, §3

[1] = test system: CB1 related cannabimimetic activity; experiment: Safety: body temperature, catalepsy, spontaneous locomotor activity, elevated plus maze, sensitivity to touch; type: in vivo, ICR male mice; conditions: 2 mg/kg i.v.
In short: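 Male ICR mice (~25 g) dosed i.v. at 2 mg/kg, with HU-210 at 0.02 mg/kg i.v. as positive control; testing began 15 min post-dose. Measured were rectal temperature, open-field squares crossed over 3 min, catalepsy as beam step-down time (s), % time in open arms of elevated plus maze over 5 min, and blinded touch sensitivity (0–2 scale); mean±SEM.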

IL-1β = experiment: Gene expression in LPS activated RAW 264.7 macrophages, IL-1β; type: cell-based, mouse; conditions: RAW 264.7, 10 μM, LPS 1 μg/ml, RNA 3 hrs after activation, vs vehicle treated activated cells
Protocol: as §1, §2, §3

SMILES | Percent inhibition of gene expression, MCP-1 (MCP-1) | Percent inhibition of gene expression, COX-2 (COX-2) | adverse cannabimimetic activities in any of the parameters monitored [1] | Percent inhibition of gene expression, IL-1β (IL-1β) | decrease of number of squares crossed ([1]; non-significant) | number of squares crossed (spontaneous locomotor activity) ([1]; period of three minutes, vehicle 75.63±6.24)
CCCCC(C)(C)c1cc(O)c2c(c1)OC1(C)CCCC21 (stereo not drawn) [Compound C5S-1, 6-(1,1-dimethylpentyl)-8a-methyl-2,3,3a,8a-tetrahydro-1H-8-oxa-cyclopenta[α]inden-4-ol] | NO (NO indicates that the compound tested did not significantly affect the transcription of the gene assessed and that its activity is comparable to vehicle, within ±20% from this control) | 29% | None | 47% |  | 
CCCCC(C)(C)c1cc(O)c2c(c1)OC1C2CCC(C)(C)C1O (centres unmarked) [Compound C6S-7, 3-(1,1-dimethylpentyl)-7,7-dimethyl-5a,6,7,8,9,9a-hexahydro-dibenzofuran-1,6-diol] |  |  | None |  |  | 
CCCCCCC(C)(C)c1cc(O)c2c(c1)OC1(C)CCCC21 (stereo not drawn) [Compound C5S-2, 6-(1,1-dimethylheptyl)-8a-methyl-2,3,3a,8a-tetrahydro-1H-8-oxa-cyclo-penta[α]inden-4-ol] | NO (NO indicates that the compound tested did not significantly affect the transcription of the gene assessed and that its activity is comparable to vehicle, within ±20% from this control) | NO (NO indicates that the compound tested did not significantly affect the transcription of the gene assessed and that its activity is comparable to vehicle, within ±20% from this control) | None | 81% |  | 
CCCCCCC(C)(C)c1cc(O)c2c(c1)OC1C=CCCC21 (centres unmarked) [Compound C6S-2, 3-(1,1-Dimethylheptyl)-5a,8,9,9a-tetrahydro-dibenzofuran-1-ol] | 44% | 61% | None | 58% |  | 
CCCCCCC(C)(C)c1cc(O)c2c(c1)OC1C(O)CCCCC21 (stereo not drawn) [Compound C7S-2, 2-(1,1-dimethylheptyl)-5,6,7,8,9,9a-hexahydro-4bH-10-oxa-benzo[α]azulen-4,9-diol] | NO (NO indicates that the compound tested did not significantly affect the transcription of the gene assessed and that its activity is comparable to vehicle, within ±20% from this control) | 26% |  | NO (NO indicates that the compound tested did not significantly affect the transcription of the gene assessed and that its activity is comparable to vehicle, within ±20% from this control) |  | 
CCCCC(C)(C)c1cc(O)c2c(c1)OC1CCCCC21 (centres unmarked) [Compound C6S-3, 3-(1,1-dimethylpentyl)-5a,6,7,8,9,9a-hexahydro-dibenzofuran-1-ol] | 55% | 65% | None | 74% | 13% | 65.80±7.04
CCCCCCC(C)(C)c1cc(O)c2c3c(oc2c1)C(=O)CCC3(C)C [Compound C6M-9, 7-(1,1-Dimethylheptyl)-9-hydroxy-1,1-dimethyl-2,3-dihydro-1H-dibenzofuran-4-one] | 37% | 50% | None | NO (NO indicates that the compound tested did not significantly affect the transcription of the gene assessed and that its activity is comparable to vehicle, within ±20% from this control) |  | 

Source: patent US20090054376A1, “BENZOFURAN DERIVATIVES WITH THERAPEUTIC ACTIVITIES” (Pharmos Corporation, priority 2005, published 2009)
